Results as given in ChEMBL document CHEMBL1909046, “DrugMatrix in vitro pharmacology data”.

Legend:
Histamine H2 receptor = Histamine H2 receptor (Homo sapiens, UniProt P25021); format: cell membranes, CHO-K1, Membrane; conditions: for Ki: read-out: Ki; as to all read-outs here: in other assays of this panel Not Active means under 50% inhibition at 10 µM
[1] = DRUGMATRIX: Glutamate, NMDA, Phencyclidine radioligand binding (ligand: [3H] TCP); format: cell membranes, Rattus norvegicus, Wistar, Cerebral cortex, Membrane; conditions: Not Active = under 50% inhibition at 10 µM
Melanocortin receptor 5 = Melanocortin receptor 5 (Homo sapiens, UniProt P33032); format: cell membranes, HEK293, Membrane; also: in other assays of this panel Not Active means under 50% inhibition at 10 µM
Melanocortin receptor 5, sequence (P33032 whole entry): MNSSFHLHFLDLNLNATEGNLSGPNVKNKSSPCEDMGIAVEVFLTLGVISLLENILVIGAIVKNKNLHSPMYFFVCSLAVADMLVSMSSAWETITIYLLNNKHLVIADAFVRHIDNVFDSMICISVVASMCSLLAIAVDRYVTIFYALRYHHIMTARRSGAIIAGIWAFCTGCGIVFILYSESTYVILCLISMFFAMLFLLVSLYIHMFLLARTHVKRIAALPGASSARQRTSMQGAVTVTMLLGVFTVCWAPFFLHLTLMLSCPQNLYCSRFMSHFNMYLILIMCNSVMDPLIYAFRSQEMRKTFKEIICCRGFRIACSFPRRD

[2] = biological target: 5-hydroxytryptamine receptor 1B (Rattus norvegicus, UniProt P28564); format: cell membranes, Wistar, Cerebral cortex, Membrane; conditions: for Ki: read-out: Ki; as to all read-outs here: in other assays of this panel Not Active means under 50% inhibition at 10 µM
5-hydroxytryptamine receptor 1B, sequence (P28564 whole entry): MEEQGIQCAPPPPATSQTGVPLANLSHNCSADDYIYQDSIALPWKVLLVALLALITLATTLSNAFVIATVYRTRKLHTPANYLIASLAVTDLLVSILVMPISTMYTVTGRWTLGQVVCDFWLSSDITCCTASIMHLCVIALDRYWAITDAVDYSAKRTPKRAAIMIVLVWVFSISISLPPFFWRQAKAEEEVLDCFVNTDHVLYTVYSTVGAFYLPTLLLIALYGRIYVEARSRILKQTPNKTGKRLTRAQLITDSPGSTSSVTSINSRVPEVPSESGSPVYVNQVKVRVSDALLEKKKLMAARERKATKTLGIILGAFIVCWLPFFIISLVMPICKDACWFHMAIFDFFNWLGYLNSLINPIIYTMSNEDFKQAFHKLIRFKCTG

[3] = biological target: T1, Amine oxidase [flavin-containing] A (Homo sapiens, UniProt P21397); test: DRUGMATRIX: Monoamine Oxidase MAO-A enzyme inhibition (substrate: Kynuramine); design: species or system BTI-TN-5B1-4; conditions: bti-tn-5b1-4; Not Active = under 50% inhibition at 10 µM
T1 sequence (P21397 whole entry): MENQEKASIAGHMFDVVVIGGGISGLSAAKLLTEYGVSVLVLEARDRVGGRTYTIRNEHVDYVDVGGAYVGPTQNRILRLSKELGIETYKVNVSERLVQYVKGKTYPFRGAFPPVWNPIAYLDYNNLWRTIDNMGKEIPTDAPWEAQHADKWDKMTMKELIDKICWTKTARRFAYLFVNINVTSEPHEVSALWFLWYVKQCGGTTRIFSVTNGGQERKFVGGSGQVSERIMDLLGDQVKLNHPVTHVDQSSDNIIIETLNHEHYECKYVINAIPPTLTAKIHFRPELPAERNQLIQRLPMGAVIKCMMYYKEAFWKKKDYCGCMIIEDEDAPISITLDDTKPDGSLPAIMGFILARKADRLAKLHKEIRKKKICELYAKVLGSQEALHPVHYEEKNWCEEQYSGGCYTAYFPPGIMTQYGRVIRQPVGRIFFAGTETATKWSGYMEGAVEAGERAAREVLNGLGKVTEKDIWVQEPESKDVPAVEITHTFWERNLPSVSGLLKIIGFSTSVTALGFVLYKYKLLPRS

[4] = biological target: T2, C-C chemokine receptor type 4 (Homo sapiens, UniProt P51679); format: cell membranes, Membrane; conditions: chem-1; also: in other assays of this panel Not Active means under 50% inhibition at 10 µM
T2 sequence (P51679 whole entry): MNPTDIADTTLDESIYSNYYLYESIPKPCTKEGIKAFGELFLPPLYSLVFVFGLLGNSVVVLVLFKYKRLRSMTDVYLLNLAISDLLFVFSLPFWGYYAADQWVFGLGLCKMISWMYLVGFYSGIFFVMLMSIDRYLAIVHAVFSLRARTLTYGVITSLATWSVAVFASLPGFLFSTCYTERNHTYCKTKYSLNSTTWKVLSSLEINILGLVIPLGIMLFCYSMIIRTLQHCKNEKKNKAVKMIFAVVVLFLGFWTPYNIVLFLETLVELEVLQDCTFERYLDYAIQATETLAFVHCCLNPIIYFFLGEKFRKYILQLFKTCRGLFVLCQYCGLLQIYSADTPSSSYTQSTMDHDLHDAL

Histamine H2 receptor, sequence (P25021 whole entry): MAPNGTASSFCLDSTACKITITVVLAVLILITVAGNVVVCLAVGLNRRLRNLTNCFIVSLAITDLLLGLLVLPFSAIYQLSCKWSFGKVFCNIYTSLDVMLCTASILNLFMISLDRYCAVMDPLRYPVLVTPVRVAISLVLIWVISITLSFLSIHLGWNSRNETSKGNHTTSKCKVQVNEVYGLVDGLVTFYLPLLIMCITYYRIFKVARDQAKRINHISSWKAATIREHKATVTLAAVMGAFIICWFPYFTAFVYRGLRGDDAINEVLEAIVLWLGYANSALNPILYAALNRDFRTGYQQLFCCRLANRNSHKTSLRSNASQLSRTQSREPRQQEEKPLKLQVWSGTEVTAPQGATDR

Row | SMILES | IC50 (Histamine H2 receptor; cho-k1) | IC50 [1] | Ki [1] | IC50 (Melanocortin receptor 5; hek293) | IC50 [2] | IC50 [3] | IC50 [4] | IC50 (Histamine H2 receptor; read-out: IC50) [nM] | Ki (Histamine H2 receptor) [nM] | IC50 (Melanocortin receptor 5; read-out: IC50) [nM] | Ki (Melanocortin receptor 5; read-out: Ki) [nM] | IC50 ([2]; read-out: IC50) [nM] | Ki [2] [nM]
1 | COc1cc(N)nc2[nH]c(-c3ccc(F)cc3)c(-c3ccncc3)c12 | Not Active | Not Active | Not Active | Not Active | Not Active | Not Active | Not Active |  |  |  |  |  | 
2 | CNS(=O)(=O)Cc1ccc2[nH]cc(CCN(C)C)c2c1 | Not Active | Not Active | Not Active | Not Active |  | Not Active | Not Active |  |  |  |  |  | 
3 | CCCc1nn(C)c2c(=O)[nH]c(-c3cc(S(=O)(=O)N4CCN(C)CC4)ccc3OCC)nc12 | Not Active | Not Active | Not Active | Not Active | Not Active | Not Active | Not Active |  |  |  |  |  | 
4 | COc1ccc(/C=C/C(=O)Nc2ccccc2C(=O)O)cc1OC | Not Active | Not Active | Not Active | Not Active | Not Active | Not Active | Not Active |  |  |  |  |  | 
5 | CCOC(N)=O | Not Active | Not Active | Not Active | Not Active | Not Active | Not Active | Not Active |  |  |  |  |  | 
6 | CC(=O)Nc1nnc(S(N)(=O)=O)s1 [ACETAZOLAMIDE] | Not Active |  |  | Not Active | Not Active | Not Active | Not Active |  |  |  |  |  | 
7 | O=c1[nH]c2ccccc2n1CCCN1CCC(n2c(=O)[nH]c3cc(Cl)ccc32)CC1 [DOMPERIDONE] | Not Active |  |  | Not Active | Not Active | Not Active | Not Active |  |  |  |  |  | 
8 | CC1=C(CC(=O)O)c2cc(F)ccc2/C1=C\c1ccc(S(C)(=O)=O)cc1 [EXISULIND] | Not Active | Not Active | Not Active | Not Active | Not Active | Not Active | Not Active |  |  |  |  |  | 
9 | CC(C)OC(=O)C(C)(C)Oc1ccc(C(=O)c2ccc(Cl)cc2)cc1 [FENOFIBRATE] | Not Active |  |  | Not Active | Not Active | Not Active | Not Active |  |  |  |  |  | 
10 | OCCN1CCN(CCCN2c3ccccc3Sc3ccc(C(F)(F)F)cc32)CC1 [FLUPHENAZINE] |  |  |  |  |  | Not Active | Not Active | 1230 | 1200 | 9520 | 8930 | 1910 | 869
11 | CN1C2CCCC1CC(NC(=O)c1nn(C)c3ccccc13)C2 (configuration not stated) [GRANISETRON] | Not Active |  |  | Not Active | Not Active | Not Active | Not Active |  |  |  |  |  | 
12 | Nc1nc2c(c(=O)[nH]1)N(C=O)C(CNc1ccc(C(=O)N[C@@H](CCC(=O)O)C(=O)O)cc1)CN2 (some centres not stated) [LEUCOVORIN] | Not Active | Not Active | Not Active | Not Active | Not Active | Not Active | Not Active |  |  |  |  |  | 
13 | C[C@@H](O)[C@H]1C(=O)N2C(C(=O)O)=C(S[C@@H]3CN[C@H](C(=O)N(C)C)C3)[C@H](C)[C@H]12 [MEROPENEM] | Not Active | Not Active | Not Active | Not Active | Not Active | Not Active | Not Active |  |  |  |  |  | 
14 | CC[C@@H](CO)NC(=O)[C@@H]1C=C2c3cccc4c3c(cn4C)C[C@H]2N(C)C1 [METHYSERGIDE] | Not Active |  |  | Not Active |  | Not Active | Not Active |  |  |  |  | 177 | 108
15 | CCN(CC)CC#CCOC(=O)C(O)(c1ccccc1)C1CCCCC1 (configuration not stated) [OXYBUTYNIN] | Not Active |  |  | Not Active | Not Active | Not Active | Not Active |  |  |  |  |  | 
16 | O=P(O)(O)C(O)(Cc1cccnc1)P(=O)(O)O [RISEDRONIC ACID] | Not Active | Not Active | Not Active | Not Active | Not Active | Not Active | Not Active |  |  |  |  |  | 

Row | SMILES | IC50 (Histamine H2 receptor; cho-k1) | IC50 [1] | Ki [1] | IC50 (Melanocortin receptor 5; hek293) | IC50 [2] | IC50 [3] | IC50 [4] | IC50 (Histamine H2 receptor; read-out: IC50) [nM] | Ki (Histamine H2 receptor) [nM] | IC50 (Melanocortin receptor 5; read-out: IC50) [nM] | Ki (Melanocortin receptor 5; read-out: Ki) [nM] | IC50 ([2]; read-out: IC50) [nM] | Ki [2] [nM]
17 | CN(CCOc1ccc(CC2SC(=O)NC2=O)cc1)c1ccccn1 (configuration not stated) [ROSIGLITAZONE] | Not Active | Not Active | Not Active | Not Active | Not Active | Not Active | Not Active |  |  |  |  |  | 
18 | C=C(C)[C@H]1Cc2c(ccc3c2O[C@@H]2COc4cc(OC)c(OC)cc4[C@@H]2C3=O)O1 [ROTENONE] | Not Active | Not Active | Not Active | Not Active | Not Active | Not Active | Not Active |  |  |  |  |  | 
19 | C#CCN(C)[C@H](C)Cc1ccccc1 [SELEGILINE] | Not Active | Not Active | Not Active | Not Active | Not Active |  | Not Active |  |  |  |  |  | 
20 | CO[C@H]1C[C@@H]2CC[C@@H](C)[C@@](O)(O2)C(=O)C(=O)N2CCCC[C@H]2C(=O)O[C@H]([C@H](C)C[C@@H]2CC[C@@H](O)[C@H](OC)C2)CC(=O)[C@H](C)/C=C(\C)[C@@H](O)[C@@H](OC)C(=O)[C@H](C)C[C@H](C)/C=C/C=C/C=C/1C [SIROLIMUS] | Not Active | Not Active | Not Active | Not Active | Not Active | Not Active | Not Active |  |  |  |  |  | 
21 | CN[C@@H]1[C@H](O)[C@H](NC)[C@H]2O[C@@]3(O)C(=O)C[C@@H](C)O[C@H]3O[C@@H]2[C@H]1O [SPECTINOMYCIN] | Not Active | Not Active | Not Active | Not Active | Not Active | Not Active | Not Active |  |  |  |  |  | 
22 | Nc1ccc(S(=O)(=O)Nc2ncccn2)cc1 [SULFADIAZINE] | Not Active | Not Active | Not Active | Not Active | Not Active | Not Active | Not Active |  |  |  |  |  | 
23 | COc1ncnc(NS(=O)(=O)c2ccc(N)cc2)c1OC [SULFADOXINE] | Not Active | Not Active | Not Active | Not Active | Not Active | Not Active | Not Active |  |  |  |  |  | 
24 | Nc1ccc(S(=O)(=O)Nc2nccs2)cc1 [SULFATHIAZOLE] | Not Active | Not Active | Not Active | Not Active | Not Active | Not Active | Not Active |  |  |  |  |  | 
25 | C[C@]12CC[C@H]3[C@@H](CCC4=CC(=O)CC[C@@]43C)[C@@H]1CC[C@@H]2O [TESTOSTERONE] | Not Active | Not Active | Not Active | Not Active | Not Active | Not Active | Not Active |  |  |  |  |  | 
26 | CC(C)(C)NC[C@H](O)COc1nsnc1N1CCOCC1 [TIMOLOL] | Not Active | Not Active | Not Active | Not Active | Not Active | Not Active | Not Active |  |  |  |  |  | 
27 | CCS(=O)(=O)CCn1c([N+](=O)[O-])cnc1C [TINIDAZOLE] | Not Active | Not Active | Not Active | Not Active | Not Active | Not Active | Not Active |  |  |  |  |  | 
28 | C[C@@H]1C[C@H]2[C@@H]3CCC4=CC(=O)C=C[C@]4(C)C3=CC[C@]2(C)[C@H]1C(=O)CN1CCN(c2cc(N3CCCC3)nc(N3CCCC3)n2)CC1 [TIRILAZAD] |  | Not Active | Not Active | Not Active | Not Active | Not Active | Not Active | 14100 | 13900 |  |  |  | 
29 | NC[C@H]1O[C@H](O[C@H]2[C@H](O)[C@@H](O[C@H]3O[C@H](CO)[C@@H](O)[C@H](N)[C@H]3O)[C@H](N)C[C@@H]2N)[C@H](N)C[C@@H]1O [TOBRAMYCIN] | Not Active | Not Active | Not Active | Not Active | Not Active | Not Active | Not Active |  |  |  |  |  | 
30 | O=c1n(CCCN2CCN(c3cccc(Cl)c3)CC2)nc2ccccn12 [TRAZODONE] | Not Active |  |  | Not Active |  | Not Active | Not Active |  |  |  |  | 1360 | 830
31 | O=C(O)C(Cl)(Cl)Cl [TRICHLOROACETIC ACID] | Not Active | Not Active | Not Active | Not Active | Not Active | Not Active | Not Active |  |  |  |  |  | 
32 | COc1ccc(CN2CCNCC2)c(OC)c1OC [TRIMETAZIDINE] | Not Active | Not Active | Not Active | Not Active | Not Active | Not Active | Not Active |  |  |  |  |  | 
